Experimental data reported in the NIST ThermoML archive (doi:10.1021/je060271a).
“And” between values parts separate entries of the source, which are not always exact repeats. Identical values can stand only once.

Details: 303.15 K, Liquid, Vibrating tube method

CCCCCC(=O)OCC(COC(=O)CCCCC)(COC(=O)CCCCC)COC(=O)CCCCC [pentaerythritol tetrahexanoate]
Details | mass density
17124 kPa | 999 kg/m3
17144 kPa | 998.9 kg/m3
17164 kPa | 998.9 kg/m3
17186 kPa | 998.9 kg/m3
17201 kPa | 998.9 kg/m3
17216 kPa | 998.9 kg/m3
17229 kPa | 999.1 kg/m3
17243 kPa | 999 kg/m3
17245 kPa | 999 kg/m3
17247 kPa | 999.1 kg/m3
17248 kPa | 999.1 kg/m3
17250 kPa | 999.1 kg/m3
17251 kPa | 999 kg/m3
17252 kPa | 999 kg/m3
17253 kPa | 999 kg/m3
17254 kPa | 999.1 kg/m3
17256 kPa | 999 kg/m3
17265 kPa | 999 kg/m3
17267 kPa | 999.1 kg/m3
17272 kPa | 999 kg/m3
17282 kPa | 999 kg/m3
17286 kPa | 999 kg/m3
17289 kPa | 999 kg/m3
17290 kPa | 998.9 kg/m3 and 999 kg/m3
17296 kPa | 999.1 kg/m3
17310 kPa | 999.2 kg/m3
17330 kPa | 999.1 kg/m3
17334 kPa | 999.1 kg/m3
17348 kPa | 999.1 kg/m3
17353 kPa | 999 kg/m3
17354 kPa | 999.2 kg/m3
17377 kPa | 999.2 kg/m3
17400 kPa | 999.1 kg/m3
17428 kPa | 999.2 kg/m3
17452 kPa | 999.1 kg/m3
17475 kPa | 999.3 kg/m3
17503 kPa | 999.1 kg/m3
17526 kPa | 999.1 kg/m3
17550 kPa | 999.3 kg/m3
17577 kPa | 999.3 kg/m3
17917 kPa | 999.3 kg/m3
17939 kPa | 999.5 kg/m3
17961 kPa | 999.4 kg/m3
17988 kPa | 999.5 kg/m3
18010 kPa | 999.4 kg/m3
18037 kPa | 999.5 kg/m3
18060 kPa | 999.6 kg/m3
18083 kPa | 999.5 kg/m3
18105 kPa | 999.5 kg/m3
18132 kPa | 999.4 kg/m3
18155 kPa | 999.6 kg/m3
18178 kPa | 999.7 kg/m3
18205 kPa | 999.6 kg/m3
18228 kPa | 999.6 kg/m3
18256 kPa | 999.6 kg/m3
18279 kPa | 999.6 kg/m3
18302 kPa | 999.6 kg/m3
18325 kPa | 999.7 kg/m3
18353 kPa | 999.6 kg/m3
18377 kPa | 999.8 kg/m3
18400 kPa | 999.7 kg/m3
18428 kPa | 999.7 kg/m3
18452 kPa | 999.6 kg/m3
18476 kPa | 999.8 kg/m3
18504 kPa | 999.8 kg/m3
18528 kPa | 999.8 kg/m3
18551 kPa | 999.7 kg/m3
18580 kPa | 999.9 kg/m3
18604 kPa | 1000 kg/m3
18628 kPa | 1000 kg/m3
18657 kPa | 999.8 kg/m3
18917 kPa | 1000 kg/m3
18943 kPa | 1000 kg/m3
18968 kPa | 999.9 kg/m3
18998 kPa | 1000 kg/m3
19024 kPa | 1000 kg/m3
19049 kPa | 1000.2 kg/m3
19074 kPa | 1000 kg/m3
19104 kPa | 1000.1 kg/m3
19128 kPa | 1000 kg/m3
19154 kPa | 1000.1 kg/m3
19177 kPa | 1000.1 kg/m3
19199 kPa | 1000.2 kg/m3
19226 kPa | 1000.2 kg/m3
19249 kPa | 1000.3 kg/m3
19273 kPa | 1000.2 kg/m3
19296 kPa | 1000.3 kg/m3
19323 kPa | 1000.1 kg/m3
19346 kPa | 1000.2 kg/m3
19374 kPa | 1000.3 kg/m3
19397 kPa | 1000.3 kg/m3
19420 kPa | 1000.3 kg/m3
19443 kPa | 1000.3 kg/m3
19471 kPa | 1000.3 kg/m3
19495 kPa | 1000.2 kg/m3
19518 kPa | 1000.3 kg/m3
19546 kPa | 1000.4 kg/m3
19570 kPa | 1000.4 kg/m3
19595 kPa | 1000.3 kg/m3
19618 kPa | 1000.4 kg/m3
19642 kPa | 1000.4 kg/m3
19670 kPa | 1000.4 kg/m3
19694 kPa | 1000.4 kg/m3
19718 kPa | 1000.6 kg/m3
19747 kPa | 1000.4 kg/m3
19771 kPa | 1000.5 kg/m3
19795 kPa | 1000.5 kg/m3
19824 kPa | 1000.4 kg/m3
19849 kPa | 1000.5 kg/m3
19873 kPa | 1000.6 kg/m3
19904 kPa | 1000.6 kg/m3
19928 kPa | 1000.6 kg/m3
19952 kPa | 1000.6 kg/m3
19977 kPa | 1000.5 kg/m3
20006 kPa | 1000.7 kg/m3
20031 kPa | 1000.6 kg/m3
20056 kPa | 1000.7 kg/m3
20081 kPa | 1000.6 kg/m3
20111 kPa | 1000.7 kg/m3
20136 kPa | 1000.8 kg/m3
20162 kPa | 1000.8 kg/m3
20192 kPa | 1000.7 kg/m3
20217 kPa | 1000.9 kg/m3
20248 kPa | 1000.8 kg/m3
20274 kPa | 1000.8 kg/m3
20299 kPa | 1000.9 kg/m3
20324 kPa | 1000.8 kg/m3
20350 kPa | 1000.8 kg/m3
20381 kPa | 1000.8 kg/m3
20406 kPa | 1000.9 kg/m3
20432 kPa | 1000.9 kg/m3
20463 kPa | 1000.9 kg/m3
20489 kPa | 1000.9 kg/m3
20515 kPa | 1000.8 kg/m3
20547 kPa | 1000.9 kg/m3
20573 kPa | 1001 kg/m3
20600 kPa | 1000.9 kg/m3
20627 kPa | 1001 kg/m3
20658 kPa | 1001 kg/m3
20685 kPa | 1001.1 kg/m3
20716 kPa | 1001 kg/m3
20743 kPa | 1001 kg/m3
20770 kPa | 1001 kg/m3
20797 kPa | 1001 kg/m3
20829 kPa | 1001 kg/m3
